Assay results taken from patent publication EP0104826A2, “Immunomodulator and method of use for immunomodulation” (FUJISAWA PHARMACEUTICAL CO., LTD., priority 1982, dated 1984).

Tests used:
Type in all cases: in vivo
thymus = assay: Dexamethasone-induced thymus atrophy in mice; details: for Thymus weight: Dexamethasone treatment Yes, n=5
Procedure: Five week-old ddY mice(male) were used. Samples were given subcutaneously twice per day from day 0 to day 2 of the experiment. Five hours after first medication on day 0, mice were supplied with drinking water containing 1 ug/ml of dexamethasone.
At day 2, the weight of thymus of the treated mice was compared with that of the nontreated controls.

[1] = system: antibody forming capacities against SRBC; assay: Antibody forming capacity (direct plaque-forming cells against SRBC) in mice injected with immunosuppressive factor
Procedure: Splenic lymphocytes producing antibody against sheep blood red cells (SRBC) were quantitated using Cunningham modification (Cunningham, A.J., Nature, 207, 1106-1107, 1965) of the Jerne plaque assay.
[…] Samples were administered to mice intraperitoneally four times before immunization. Mice were sacrificed 4 days after the injection of SRBC, and the number of direct plaque-forming cells per spleen was determined.

[2] = system: antibody forming capacities; assay: Antibody forming capacity (PFC-SRBC) in mice immunosuppressed with cyclophosphamide
Procedure: Female BDF1 (8 weeks in age) mice were injected intraperitoneally with cyclophosphamide (22.5 mg/kg) 4 days before immunization with 5 x 10^8 SRBC. Samples were administered to mice i.p. from four days before immunization, every day for five days.
Mouse splenic lymphocytes producing antibody against SRBC were quantitated by using Cunningham modification method described previously.

Question: Which results are given for O[C@H]1[C@H]2[C@H](O)CCCN2C[C@H]1O [Swainsonine]?
Answer: Thymus weight (thymus; sample 5 mg/kg subcutaneously twice per day): 73.0 mg/mouse; Thymus weight (thymus; sample 15 mg/kg subcutaneously twice per day): 78.8 mg/mouse; Thymus weight (thymus; sample 50 mg/kg subcutaneously twice per day): 72.4 mg/mouse; atrophy of thymus induced by dexamethasone (thymus; mice): prevents; PFC-SRBC/spleen (average number of 5 mice/group) ([1]; BDF1 mice, Swainsonine 100 mg/kg/day intraperitoneally, alone (normal mice)): 16.49 x 10^4 PFC-SRBC/spleen; PFC-SRBC/spleen (average number of 5 mice/group) ([1]; Immunosuppressive factor (0.3 ml/mouse/day) + Swainsonine 3.7 mg/kg i.p.): 20.77 x 10^4 PFC-SRBC/spleen; PFC-SRBC/spleen (average number of 5 mice/group) ([1]; Immunosuppressive factor (0.3 ml/mouse/day) + Swainsonine 11 mg/kg i.p.): 20.08 x 10^4 PFC-SRBC/spleen; PFC-SRBC/spleen (average number of 5 mice/group) ([1]; Immunosuppressive factor (0.3 ml/mouse/day) + Swainsonine 33 mg/kg i.p.): 20.84 x 10^4 PFC-SRBC/spleen; PFC-SRBC/spleen (average number of 5 mice/group) ([1]; Immunosuppressive factor (0.3 ml/mouse/day) + Swainsonine 100 mg/kg i.p.): 17.39 x 10^4 PFC-SRBC/spleen; capacities to produce antibody against SRBC ([1]; mice injected immunosuppressive factor, intraperitoneal administration): restored the capacities; capacities to produce antibody against SRBC ([1]; normal mice): did not enhance; PFC-SRBC/spleen (average number of 5 mice/group) ([2]; BDF1 mice, Swainsonine 100 mg/kg i.p. alone): 16.54 x 10^4 PFC-SRBC/spleen; PFC-SRBC/spleen (average number of 5 mice/group) ([2]; Cyclophosphamide (22.5 mg/kg) + Swainsonine 3 mg/kg i.p.): 21.53 x 10^4 PFC-SRBC/spleen; PFC-SRBC/spleen (average number of 5 mice/group) ([2]; Cyclophosphamide (22.5 mg/kg) + Swainsonine 11 mg/kg i.p.): 16.52 x 10^4 PFC-SRBC/spleen; PFC-SRBC/spleen (average number of 5 mice/group) ([2]; Cyclophosphamide (22.5 mg/kg) + Swainsonine 33 mg/kg i.p.): 17.19 x 10^4 PFC-SRBC/spleen; PFC-SRBC/spleen (average number of 5 mice/group) ([2]; Cyclophosphamide (22.5 mg/kg) + Swainsonine 100 mg/kg i.p.): 16.48 x 10^4 PFC-SRBC/spleen; capacities to produce antibody against SRBC ([2]; mice injected cyclophosphamide): restored the capacities
